Data: US11254904B2, “Culture material and use thereof” (MITSUI CHEMICALS, INC., priority 2019, dated 2022)
Counter-ions that a name gives are not always drawn.

Tests used:
[1] = Evaluation of drug sorption (drug residual rate); format: physicochemical; conditions: 10 μmol/L drug solution, 0.5 ml per well, 23° C., 2 days; average of three wells
Description: Thereafter, the drug solutions were recovered. The concentrations of the recovered drug solutions were measured by a fluorescence analysis method or LC/MS. The drug residual rate, which was the concentration of the measured recovered drug solution with respect to the concentration of the drug solution before added to the vessel, was calculated. The average value of the drug residual rate in three wells was given. For the drugs 1 to 3 for evaluation, concentration analysis was performed by a fluorescence analysis method.

[2] = Evaluation of drug sorption (drug residual rate); format: physicochemical; conditions: 10 μmol/L drug solution, 0.5 ml per well, 23° C., 2 days; average of three wells; remark: listed apart in the source
Description: Thereafter, the drug solutions were recovered. The concentrations of the recovered drug solutions were measured by a fluorescence analysis method or LC/MS. The drug residual rate, which was the concentration of the measured recovered drug solution with respect to the concentration of the drug solution before added to the vessel, was calculated. The average value of the drug residual rate in three wells was given. For the drugs 1 to 3 for evaluation, concentration analysis was performed by a fluorescence analysis method. For the drugs 4 to 8 for evaluation, concentration analysis was performed by LC/MS. <Fluorescence Analysis Conditions> • Evaluation apparatus: FP-6600 (spectrofluorometer, manufactured by JASCO Corporation) • Used cell: Micro cell made of quartz • Bandwidth: excitation side: 5 nm, fluorescence side: 6 nm • Sensitivity (PMT voltage): 400 V • Excitation wavelength: rhodamine B 555 nm <LC/MS Conditions> • Apparatus: Acquity UPLC I-class system/TQ-S micro(water) • Ionization method: electrospray ionization (ESI), positive and negative ion detection A drug sorption test was performed on the 24-well TCPS culture vessel (manufactured by Corning Incorporated, made of polystyrene (PS)) used in Comparative Example 4 and the 24-well PDMS culture vessel (product name: […] (trademark) model number: […]

Row | Molecule | drug residual rate, 4-methyl-1-pentene Polymer Vessel (Example 11) [1] [%] | drug residual rate, PDMS Vessel (Comparative Example 8) [2] [%] | drug residual rate, PS Vessel (Comparative Example 7) [2] [%]
1 | Clc1ccccc1CN1CCc2sccc2C1 [Ticlopidine Hydrochloride, ticlopidine hydrochloride] | 64 | 1 | 67
2 | CC(C)NCC(O)c1ccc(O)c(O)c1 (stereo not drawn) [Isoproterenol Hydrochloride, isoproterenol hydrochloride] | 63 | 1 | 65
3 | CCN(CC)c1ccc2c(-c3ccccc3C(=O)O)c3ccc(=[N+](CC)CC)cc-3oc2c1.[Cl-] [Rhodamine B, rhodamine B] | 98 | 2 | 90
4 | rhodamine 123 | 99 | 58 | 79
5 | Cc1oncc1C(=O)Nc1ccc(C(F)(F)F)cc1 [Leflunomide, leflunomide] | 68 | 2 | 70
